Assay results: patent US20240336567A1, “PESTICIDAL AND HERBICIDAL COMPOUNDS AND METHODS OF USE THEREOF” (AG Plenus Ltd, priority 2021, published 2024)
Read-outs that look alike come from different tables or passages of the source.

Experiments:
DIGSA = assay: In-planta LTP pre-emergence, visual phenotype; assay type: in vivo, Digitaria sanguinalis; details: monocot
Experimental: (§1) A basic panel of 8 weed species (Table 3) were sowed in 4×4×7 cm plastic pots containing inert sand (Sweet sand), intensively washed using osmosis water. Each specie was sowed in a separate pot. In each pot 10-15 seeds were sowed according to the specie viability. Sowing was performed one day before application. The plants were grown for 21 days in a controlled greenhouse (26±2° C. day 20±2° C. night). Hood irrigation (tap water+Shefer 5:3:8 8 mM) was given at a 50% water content by weight. Compounds were soluble in water (DDW), and commercial herbicide control was soluble in formulation B (Table 4). Application was conducted with an industrial sprayer (TeeJet 6502E nozzle) at a rate of 2 kg/ha and spray volume of […]. Pre-emergence advanced dose response experiment application was conducted at six rates between 1-0.0312 kg/ha and spray volume of […]. Percentage of emergence was evaluated at 15 DAA. Visual phenotyping was recorded using a scale of 0-6 (0: no visible effect, 6: maximum effect) at 18 DAA. All experiments included an untreated control, a solvent control and a positive control (commercial herbicide A.I.). Statistical analysis for visual phenotyping determined by a median value of ≥3.5 and Fisher test (pval≤0.05). Statistical analysis for plant emergence determined by % emergence ≥50 and T test (pval≤0.05), as well as Wilcox test (pval≤0.05).

ALOMY = assay: In-planta LTP pre-emergence, visual phenotype; assay type: in vivo, Alopecurus myosuroides; details: monocot
Experimental: as §1

AMAPA = assay: In-planta LTP pre-emergence, visual phenotype; assay type: in vivo, Amaranthus palmeri; details: dicot; for pest or weed control at 2000 g/ha: Amaranthus palmeri, 432 h, read-out: IG Inhibited growth (% effect)
Experimental: as §1

SOLNI = assay: In-planta LTP pre-emergence, visual phenotype; assay type: in vivo, Solanum nigrum; details: dicot
Experimental: as §1

MATCA [1] = assay: In-planta LTP pre-emergence, visual phenotype; assay type: in vivo, Matricaria chamomilla; details: dicot
Experimental: as §1

Arabidopsis thaliana [2] = assay: HTPS - Dicot - Pre-emergence; assay type: in vivo; details: N/A: not active
Experimental: (§2) Arabidopsis thaliana seeds were sown in 96 well plates filled with irrigated Sweet sand (10%>clay) that is washed from salts and minerals using tap water. 5-10 seeds were sown in the center of each well. 7-8 days post sowing, at 2 true leaves stage, thinning out was performed to ensure that compound application is done on a single plant per well. The plates were placed in a controlled greenhouse in a random order inside a bath which allows flooding irrigation with tap water supplemented with a fertilizer. Applied compounds were dissolved into a final solution of 50% acetone, 49.9% DDW, 0.1% tween-20. A 96 well plate was used as a stock plate for preparing application solutions for 8 repeats. Each row contained different concentrations per chemical. Maximal concentration for application was 1.5 Kg/Ha and dilution factor is 2.5. Chemical application was performed one day after thinning out in a chemical hood. 5 μL applied on first two true leaves in each well using 12 channel pipettes. Data collection: RGB (red, green, blue) data for green area per well was documented using camera. Data is collected at a few time points during the experiment: one day after thinning and before chemical application, two-, six- or nine-days post application. During the last two documentations, visual phenotyping was performed. Data analysis: Given RGB results and visual phenotype scores, a student t-test conducted to compare between treatment and control performance for continuous data (RGB) and Fisher exact test to analyze the non-continuous data (phenotypic scores). Dose-Response curves are generated for each treatment to infer ED50 and max. inhibition parameters, using treatment's log concentration range as the […] variable and normalized green area. These experiments are conducted similarly except that either Arabidopsis thaliana or Eragrostis teff seeds were sowed (5-10 or 5-7, respectively), plant thinning out was not performed, compound dissolved into a final solution of 50% acetone, 49.9% DDW, compound application was done at 30 μL volume per well directly on sowed soil before plant emergence and data was collected 10 or 7 days after chemical application on dicot or monocot plants, respectively. Plate imaging performed at 11 and 18 DAA. RGB data for green area per well was documented and used to extract % inhibition. Dose-Response curves were built for each treatment to infer ED50, ED75 and ED90 parameters, using treatment's log concentration range as the independent variable and normalized green area as the dependent variable. Treatments were compared to controls performance given RGB results and using student's t-test (p-val≤0.05).

CHEAL = assay: In-planta LTP pre-emergence, visual phenotype; assay type: in vivo, Chenopodium album; details: dicot
Experimental: as §1

SETVI = assay: In-planta LTP pre-emergence, visual phenotype; assay type: in vivo, Setaria viridis; details: Setaria viridis, 432 h, monocot
Experimental: as §1

EPPHL = assay: In-planta LTP pre-emergence, visual phenotype; assay type: in vivo, Euphorbia heterophylla; details: dicot
Experimental: as §1

LOLPE = assay: In-planta LTP pre-emergence, visual phenotype; assay type: in vivo, Lolium perenne; details: monocot
Experimental: as §1

ABUTH = assay: In-planta LTP pre-emergence, visual phenotype; assay type: in vivo, Abutilon theophrasti; details: dicot
Experimental: as §1

[3] = in vitro thermal shift (binding of compound to the target); details: thermal shift caused by binding of the compound to the (unnamed) target
Arabidopsis thaliana [4] = assay: HTPS (high throughput on soil) - Dicot - Post-emergence; assay type: in vivo; details: N/A: not active; for Emax: read-out: HTPS - Dicot - Post Max effect; for HTPS - Dicot - Post ED50: from normalized green area
Experimental: as §2, with “area.” for “area. These experiments are conducted similarly except that either Arabidopsis thaliana or Eragrostis teff seeds were sowed (5-10 or 5-7, respectively), plant thinning out was not performed, compound dissolved into a final solution of 50% acetone, 49.9% DDW, compound application was done at 30 μL volume per well directly on sowed soil before plant emergence and data was collected 10 or 7 days after chemical application on dicot or monocot plants, respectively.”

ECHCO = assay: In-planta LTP pre-emergence, visual phenotype; assay type: in vivo, Echinochloa colona; details: monocot
Experimental: as §1

Eragrostis teff = assay: HTPS - Monocot - Pre-emergence; assay type: in vivo; details: N/A: not active; for Emax: read-out: HTPS - Monocot - Pre Max effect
Experimental: as §2

POAAN = assay: In-planta LTP pre-emergence, visual phenotype; assay type: in vivo, Poa annua; details: monocot
Experimental: as §1

MATCA [5] = assay: In-planta LTP post-emergence, visual phenotype; assay type: in vivo, Matricaria chamomilla; details: dicot
Experimental: A basic panel of eight weed species (Table 3) sowed in 4×4×7 cm plastic pots containing a garden mix (klasmann). Each specie was sowed in a separate pot. In each pot, 10-15 seeds were sowed according to the specie viability. Timing of application determined at a 1-2 true leaf stage. The plants grew for 30 days in a controlled greenhouse (26±2° C. day, 20±2° C. night). Hood irrigation (tap water+Shefer 5:3:8 8 mM) was given at a 50% water content by weight. Two days before application, the tested plants thinned down to three plants per pot. Compounds were soluble in water (DDW), and commercial herbicide control was soluble in formulation B (Table 4). […] Plants were evaluated at 3 time points (4, 8, 12 days after application (DAA)). At each time point, visual phenotyping was recorded using a scale of 0-6 (0: no visible effect, 6: maximum effect). […]
Post-emergence advanced dose response experiment included 4 species: SETVI, ECHCO, AMAPA, ABUTH (Tables 3, 5). […] Plants were evaluated at 4 time points (6, 12, 18 and 26 DAA). At each time point, visual phenotyping was recorded using a scale of 0-6 (0: no visible effect, 6: maximum effect). […]
Post-emergence advanced wide panel experiment included 24 weed species (Table 5). […] Visual phenotyping was recorded at 4, 11, 17 and 20 DAA using a scale of 0-6 (0: no visible effect, 6: maximum effect). […]

Compound: CC(N)COc1cccc(C(=O)O)n1 (centres unmarked) [Compound 116]
- DE Disturbed emergence (% effect) (DIGSA): DE (100) %
- IG Inhibited growth (% effect) (ALOMY): IG (100), %
- W Wilting (% effect) (ALOMY): W^5 (100) %
- pest or weed control at 2000 g/ha (AMAPA): 80%
- C Chlorosis (% effect) (AMAPA): C^3 (60), %
- DAB Disturbed apical bud (% effect) (AMAPA): DAB (100) %
- DAB Disturbed apical bud (% effect) (SOLNI): DAB^2 (80) %
- IG Inhibited growth (% effect) (SOLNI): IG (80), %
- BL Bleaching (% effect) (MATCA [1]): BL^4 (40), %
- DAB Disturbed apical bud (% effect) (MATCA [1]): DAB (60) %
- IG Inhibited growth (% effect) (MATCA [1]): IG (80), %
- HTPS - Dicot - Pre ED50 (Arabidopsis thaliana [2]): 10 g/ha
- Emax (Arabidopsis thaliana [2]; read-out: HTPS - Dicot - Pre Max effect): 100%
- DAB Disturbed apical bud (% effect) (CHEAL): DAB (80) %
- IG Inhibited growth (% effect) (CHEAL): IG (80), %
- pest or weed control at 2000 g/ha (SETVI; read-out: DE Disturbed emergence (% effect)): 100%
- BL Bleaching (% effect) (EPPHL): BL (80), %
- DAB Disturbed apical bud (% effect) (EPPHL): DAB (80) %
- IG Inhibited growth (% effect) (EPPHL): IG (60), %
- DE Disturbed emergence (% effect) (LOLPE): DE (100) %
- BL Bleaching (% effect) (ABUTH): Bl (80), %
- DAB Disturbed apical bud (% effect) (ABUTH): DAB (80) %
- IG Inhibited growth (% effect) (ABUTH): IG (80), %
- in vitro Thermal Shift [3]: 16 °C
- Emax (Arabidopsis thaliana [4]): 100%
- HTPS - Dicot - Post ED50 (Arabidopsis thaliana [4]): 3 g/ha
- DE Disturbed emergence (% effect) (ECHCO): DE (100) %
- HTPS - Monocot - Pre ED50 (Eragrostis teff): 10 g/ha
- Emax (Eragrostis teff): 100%
- DE Disturbed emergence (% effect) (POAAN): DE (100) %

Compound: NCCOc1ccc(F)c(C(=O)O)c1 [Compound 129]
- pest or weed control at 2000 g/ha (AMAPA): 40%
- LOD Lodging (% effect) (MATCA [5]): LOD^3 (40) %
- pest or weed control at 2000 g/ha (SETVI; read-out: IG Inhibited growth (% effect)): 40%
- IG Inhibited growth (% effect) (LOLPE): IG (40) %
- in vitro Thermal Shift [3]: 9 °C
- Emax (Arabidopsis thaliana [4]): 81%
- HTPS - Dicot - Post ED50 (Arabidopsis thaliana [4]): 45 g/ha
- HTPS - Monocot - Pre ED50 (Eragrostis teff): 550 g/ha
- Emax (Eragrostis teff): 86%
- pest or weed control at 2000 g/ha (POAAN; Poa annua, 432 h, read-out: IG Inhibited growth (% effect)): 80%
- DE Disturbed emergence (% effect) (POAAN): DE (80) %
